From article PMC9317316, “Synthesis and Evaluation of Some New 4H-Pyran Derivatives as Antioxidant, Antibacterial and Anti-HCT-116 Cells of CRC, with Molecular Docking, Antiproliferative, Apoptotic and ADME Investigations” (Pharmaceuticals, 2022) come the findings set out here.

Values joined by “and” are separate entries in the source; they are usually repeats but may differ in a detail not shown here. Equal values may be shown once. Read-outs that look alike come from different tables or passages of the source.

The nature of experiment [1]: Reducing power assay (FRAC, Fe3+ to Fe2+). As to conditions: 0-1 mg/mL, absorbance 700 nm. A digest of the protocol:
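Oyaizu method: compound (0–1 mg/mL) incubated with 0.2 M phosphate buffer pH 6.6 and 1% K3Fe(CN)6 at 50 °C for 20 min, then TCA, centrifugation, and 0.1% FeCl3 added to supernatant. Absorbance read at 700 nm; EC50 expressed in mM, BHT as reference.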

Experiment [2] relates to B. cereus (ATCC 14579). Put plainly: Antibacterial agar diffusion method (inhibition zone). The format is cell-based. The method, boiled down:
(§1)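 CFU assay: 2 ×10^7 CFU/mL, BHI, compound, 60 min shaking 37 °C → serial dilution → agar plates 24 h 37 °C → residual CFU vs inoculum → IC50 (n=3). Agar diffusion: zone on top agar; ampicillin 10 µg/well reference.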
For orientation: In agar diffusion tests the substance spreads into inoculated agar from a disc or well.

Experiment [3] deals with B. subtilis (ATCC 6633). The experiment is described as above. The format is cell-based. The method, boiled down:
as §1

Experiment [4] deals with E. coli (ATCC 25966). Described as above. It is filed as cell-based. As to conditions: E. coil (ATCC 25966). A digest of the protocol:
as §1

Experiment [5] relates to E. faecalis (ATCC 29122). Described as above. It is filed as cell-based. A digest of the protocol: as §1
The subject of experiment [6] is K. pneumonia (ATCC 700603). The description is as above. It is filed as cell-based. A digest of the protocol: as §1
Experiment [7] has as its system P. aeruginosa (ATCC 27853). The description is as above. It is filed as cell-based. A digest of the protocol:
as §1

Experiment [8] relates to S. aureus (ATCC 25923). Described as above. It is filed as cell-based. The method, boiled down: as §1
Experiment [9] concerns S. epidermidis (ATCC 14990). The description is as above. It is filed as cell-based. The method, boiled down:
as §1

Experiment [10] concerns B. cereus (ATCC 14579). Put plainly: Antibacterial viability (CFU) assay, IC50. The format is cell-based. As to conditions: Bacillus cereus, ATCC14579. A digest of the protocol:
as §1

Experiment [11] relates to B. subtilis (ATCC 6633). Description: Antibacterial viability (CFU) assay, IC50. It is filed as cell-based. To be noted: Bacillus subtilis, ATCC6633, B. subtilis (ATCC 6633). A digest of the protocol: as §1
For experiment [12], the system named is E. coli (ATCC 25966). Put plainly: Antibacterial viability (CFU) assay, IC50. The format is cell-based. As to conditions: Escherichia coli, ATCC25966; E. coil (ATCC 25966). The method, boiled down:
as §1

The test system of experiment [13] is E. faecalis (ATCC 29122). Put plainly: Antibacterial viability (CFU) assay, IC50. It is filed as cell-based. As to conditions: Enterococcus faecalis, ATCC29122. A digest of the protocol: as §1
The test system of experiment [14] is K. pneumonia (ATCC 700603). Put plainly: Antibacterial viability (CFU) assay, IC50. To be noted: Klebsiella pneumoniae, ATCC700603. It is filed as cell-based. A digest of the protocol: as §1
Experiment [15] concerns P. aeruginosa (ATCC 27853). Description: Antibacterial viability (CFU) assay, IC50. The format is cell-based. As to conditions: Pseudomonas aeruginosa, ATCC27853. A digest of the protocol:
as §1

For experiment [16], the system named is S. aureus (ATCC 25923). Put plainly: Antibacterial viability (CFU) assay, IC50. The format is cell-based. As to conditions: Staphylococcus aureus, ATCC25923. A digest of the protocol: as §1
In the next experiment the test system is S. enteric (ATCC 43972). Put plainly: Antibacterial viability (CFU) assay, IC50. The format is cell-based. To be noted: read-out: IC50. The method, boiled down:
as §1

Experiment [17] has as its system S. epidermidis (ATCC 14990). Description: Antibacterial viability (CFU) assay, IC50. The format is cell-based. As to conditions: Staphylococcus epidermidis, ATCC14990. A digest of the protocol: as §1
The next experiment deals with HCT-116 cells. Description: Cell viability (cytotoxicity, LDH release) assay. It is filed as cell-based. To be noted: Homo sapiens, 24 h; for viability at 100 µg/mL: read-out: percent of viable cells. The method, boiled down: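 Human colorectal HCT-116 cells exposed to compounds at 10, 25, 50 and 100 µg/mL in DMEM with 10% FBS for 24 h at 37 °C. LDH released into the supernatant measured at 600 nm; viability given as % of untreated control OD (mean ± SD, n = 3), 0.1% Triton X-100 as positive control.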

The mark [18] stands for this setting: read-out: Mean IC50 (µM) of cytotoxicity.
Where [19] appears, read: read-out: Mean IC50 (µg/mL) of cytotoxicity.

By EC50 is commonly meant the midpoint of the concentration-response curve.

For `COc1cc(C2C(C#N)=C(N)OC(C)=C2C(=O)OCc2ccccc2)cc(OC)c1OC` (stereo not drawn) [4d, 6-Amino-5-cyano-2-methyl-4-(3,4,5-trimethoxy-phenyl)-4H-pyran-3-carboxylic acid benzyl ester], the EC50 in experiment [1] was 149 ± 16 µM. The “IZ (mm)” value is 9.50 ± 0.71 mm in the experiment on B. cereus (ATCC 14579) [2]; 12.00 ± 1.41 mm in the experiment with B. subtilis (ATCC 6633) [3]; 3.5 ± 0.71 mm in the experiment on E. coli (ATCC 25966) [4]; 14.50 mm and 14.50 ± 0.71 mm with E. faecalis (ATCC 29122) [5]; 4.5 ± 0.7 mm in experiment [6]; 6.5 ± 0.7 mm in [7]. Further, the “IZ (mm)” value was 9.00 mm and 9.00 ± 1.41 mm with S. aureus (ATCC 25923) [8]; 8.50 ± 0.71 mm in experiment [9]. Also, the IC50 in the experiment with B. cereus (ATCC 14579) [10] amounted to 39.5 ± 0.8 µM; in the experiment with B. subtilis (ATCC 6633) [11] it was 40.3 ± 1.95 µM; with E. coli (ATCC 25966) [12], 88.7 ± 2.52 µM; in the experiment with E. faecalis (ATCC 29122) [13], 29.1 ± 2.27 µM; in experiment [14], 72.63 ± 0.69 µM; in experiment [15], 67.4 ± 1.37 µM. Further, the IC50 in the experiment on S. aureus (ATCC 25923) [16] was 24.4 ± 1.15 µM; in the experiment on S. enteric (ATCC 43972), 65.8 ± 2.29 µM; in [17], 26.7 ± 1.15 µM; in the experiment on HCT-116 cells (setting [18]), 75.1 ± 5.09 µM; in the experiment with HCT-116 cells (setting [19]), 32.8 ± 2.22 µg/mL. Also, the viability at 100 µg/mL in the experiment on HCT-116 cells lay in the range of 11 to 32.5%.

`CC1=C(C(=O)OCc2ccccc2)C(c2ccc(C#N)cc2)C(C#N)=C(N)O1` (stereo not drawn) [4k, 6-Amino-5-cyano-4-(4-cyano-phenyl)-2-methyl-4H-pyran-3-carboxylic acid benzyl ester]: the midpoint of the response in experiment [1], the EC50, lay at 1560 ± 102 µM. In addition, the “IZ (mm)” value in the experiment with B. cereus (ATCC 14579) [2] is 7.00 ± 1.41 mm; in the experiment on B. subtilis (ATCC 6633) [3] it was 4.50 ± 0.71 mm; with E. coli (ATCC 25966) [4], 4.5 ± 0.71 mm; in the experiment on E. faecalis (ATCC 29122) [5], 5.50 ± 0.71 mm; in experiment [6], 2.5 ± 0.7 mm; in experiment [7], 3.5 ± 0.7 mm. For the same compound, the “IZ (mm)” value is recorded as 5.75 ± 0.35 mm in the experiment with S. aureus (ATCC 25923) [8] and 4.50 ± 0.71 mm in experiment [9]. The IC50 in the experiment with B. cereus (ATCC 14579) [10] was determined as 48.1 ± 1.35 µM; with B. subtilis (ATCC 6633) [11], 42.1 ± 2.48 µM; in the experiment on E. coli (ATCC 25966) [12] it was 80.2 ± 4.31 µM; in the experiment on E. faecalis (ATCC 29122) [13], 45.4 ± 0.57 µM; in [14] it was 77.8 ± 2.96 µM; in experiment [15], 73.2 ± 3.5 µM. The IC50 with S. aureus (ATCC 25923) [16] was 43.9 ± 0.57 µM; with S. enteric (ATCC 43972) it was 75.5 ± 2.42 µM; in experiment [17], 50.2 ± 2.48 µM; with HCT-116 cells (setting [18]), 85.9 ± 7.61 µM; with HCT-116 cells (setting [19]), 31.9 ± 2.83 µg/mL. Further, the viability at 100 µg/mL in the experiment with HCT-116 cells was in the range of 11 to 32.5%.
